Reference: patent US20260053902A1, “COMPOSITIONS AND METHODS FOR REDUCING THE RATE OF TYPE 1 DIABETES” (Wisconsin Alumni Research Foundation, priority 2023, published 2026)

How the values were obtained:
NOD mouse [1] = experiment: Rate of type 1 diabetes and final blood glucose in treated female NOD/ShiLtJ mice; assay type: in vivo; conditions: for rate of diabetes: EGCG IP in saline from age 3-5 days
Procedure: Mouse care: NOD/ShiLtJ mice were from The Jackson Laboratory (Bar Harbor, ME, USA). Mice were housed under standard conditions (20-24° C., humidity 30-70%, lighting regimen 12 h light/12 h dark) in the University of Wisconsin Biomedical Research Model Service that is a specific pathogen free level 1 facility. […] Mice had access to acidified water or water containing a chemical and/or green tea ad libitum. All procedures were approved by the Research Animal Resources and Compliance veterinary care authority of the University of Wisconsin, Madison.
Mouse treatments: Mice were given chemicals by intraperitoneal injection and/or by gavage and/or in drinking water. Water-soluble chemicals were administered in a solution of sodium chloride adjusted to have a final osmolality of 0.5-0.9%. Lipid soluble chemicals were dissolved in olive oil, peanut oil, corn oil, Mazola® oil or canola oil.
Starting at age 2 to 5 days mice were given injections on every third or fourth day for 2 to 4 weeks (usually 2 to 2.5 weeks) for the first 4 or 6 injections, and thereafter twice per week on Mondays and Thursdays until up to age 100 days. In some instances, pregnant and nursing mice were given chemicals in drinking water starting at about the middle or late pregnancy continuing during nursing and also continuing for various lengths of time to the offspring with or without additional intraperitoneal injections of chemicals. In other instances, chemicals were delivered by intraperitoneal injection into pregnant mice and continued after delivery into the mouse pups. Chemicals, for example EGCG, were also delivered in drinking water starting before birth to the pregnant mouse mother and/or continuing and/or starting ad libitum to the mice after birth usually until at least 100 days of age or throughout life.
Chemicals given in distilled drinking water were green tea (as a source of EGCG and other catechins) (Lipton® 100% Natural Green Tea). […] The tea water was given alone and also in combination with acetaminophen 2 g/l in the same water.
In most cases nondiabetic mice were euthanized at 40-41 weeks of age. Statistical significances of the frequencies of diabetes in the mice receiving test treatments were compared to the rates of diabetes in mice receiving control treatments and were calculated with the Chi square test and with the Chi square test with Yate's correction.
In most of the studies, control solutions and the other treatments were administered to the mice until they were 100 days old. Mice without diabetes were euthanized at 40-41 weeks of age. Diabetic mice were euthanized when their blood glucose levels reached a level that met the criteria for diabetes.
Administration of water-soluble chemicals serving as controls to NOD mice: Control solutions were the vehicles in which chemicals were dissolved. Control solutions were usually administered to mouse litters from the same shipments as the litters receiving test chemicals and/or litters from the same parents as the litters receiving test chemicals and were administered during the same month and year as treatments to the litters receiving test treatments. Statistical probabilities between the rates of diabetes in the litters receiving test treatments were compared to litters simultaneously receiving control treatments.

mice = conditions: mouse, in vivo
Source text: Intraperitoneal injections of water-soluble chemicals were given in normal saline (0.9% sodium chloride).

NOD mouse [2] = conditions: Fu et al.: 1 mM EGCG in drinking water, given after age 5 weeks; 12 mice; 32 weeks of age; cited from earlier work
[3] = 100 μmol/kg IP in saline, age 34 weeks
[4] = 20 μmol/kg IP in saline until age 58-61 days, age 34 weeks
[5] = 50 μmol/kg IP in saline from age 3-5 days until 59-63 or 93-95 days, age 41-44 weeks
[6] = 1 mM in drinking water, oral, from 1-4 days after birth
[7] = 60 day treatment (stopped at age 59-60 days), 50 μmol/kg IP in saline, age 40 weeks
[8] = IP 50 μmol/kg in saline til wean (21 days), then gavage 100 μmol/kg until 97-98 days
[9] = started post wean (21 days) until 99 days, 50 μmol/kg IP in ¾ saline
[10] = hydroxytyrosol alone, 325 μmol/kg first 5 weeks, 650 thereafter, IP in ¾ saline
[11] = menaquinone-4 200 μmol/kg IP in olive oil, age 40 weeks
[12] = menaquinone-4 200 μmol/kg IP in peanut oil
[13] = pure oleocanthal (oil) 50 μmol/kg, no carrier, IP til wean, then gavage
[14] = 2000-3500 μmol/kg IP in olive oil, age 40 weeks
[15] = 2000-3500 μmol/kg IP in peanut oil
[16] = started post wean, 3100-4000 μmol/kg IP in olive oil

Structure (SMILES): O=C(O)/C=C/c1ccc(O)c(O)c1 [Caffeic Acid, reference compound]
- Diabetes (%) (NOD mouse [1]; [3]): 65%
- Final Blood Glucose (mean ± SE) diabetic (NOD mouse [1]; [3]): 611 ± 32 mg glucose/dl
- Final Blood Glucose (mean ± SE) non-diabetic (NOD mouse [1]; [3]): 178 ± 15 mg glucose/dl

Structure (SMILES): COC1=C(OC)C(=O)C(C)=CC1=O [CoQ0, 2,3-dimethoxy-5-methyl-1,4-benzoquinone, reference compound]
- toxicity (mice): toxicity to the mice
- Diabetes (%) (NOD mouse [1]; [4]): 83%
- Final Blood Glucose (mean ± SE) diabetic (NOD mouse [1]; [4]): 649 ± 53 mg glucose/dl
- Final Blood Glucose (mean ± SE) non-diabetic (NOD mouse [1]; [4]): 183 ± 28 mg glucose/dl

Structure (SMILES): O=C(O[C@@H]1Cc2c(O)cc(O)cc2O[C@@H]1c1cc(O)c(O)c(O)c1)c1cc(O)c(O)c(O)c1 [EGCG, (2R,3R)-5,7-Dihydroxy-2-(3,4,5-trihydroxyphenyl)-3,4-dihydro-2H-1-benzopyran-3-yl 3,4,5-trihydroxybenzoate]
- mice that had diabetes (NOD mouse [2]): 25%
- Diabetes (%) (NOD mouse [1]; [5]): 35%
- Final Blood Glucose (mean ± SE) diabetic (NOD mouse [1]; [5]): 685 ± 34 mg glucose/dl
- Final Blood Glucose (mean ± SE) non-diabetic (NOD mouse [1]; [5]): 159 ± 5 mg glucose/dl
- Diabetes (%) (NOD mouse [1]; [6]): 40%
- Final Blood Glucose (mean ± SE) diabetic (NOD mouse [1]; [6]): 708 ± 24 mg glucose/dl
- Final Blood Glucose (mean ± SE) non-diabetic (NOD mouse [1]; [6]): 172 ± 4 mg glucose/dl
- Diabetes (%) (NOD mouse [1]; [7]): 33%
- Final Blood Glucose (mean ± SE) diabetic (NOD mouse [1]; [7]): 663 ± 57 mg glucose/dl
- Final Blood Glucose (mean ± SE) non-diabetic (NOD mouse [1]; [7]): 145 ± 4 mg glucose/dl
- rate of diabetes (NOD mouse [1]; treatment ending after 59-63 days, age 41-44 weeks): 38%
- rate of diabetes (NOD mouse [1]; treatment ending after 93-95 days, age 41-44 weeks): 31%
- Diabetes (%) (NOD mouse [1]; [8]): 50%
- Final Blood Glucose (mean ± SE) diabetic (NOD mouse [1]; [8]): 624 ± 33 mg glucose/dl
- Final Blood Glucose (mean ± SE) non-diabetic (NOD mouse [1]; [8]): 200 ± 12 mg glucose/dl
- Diabetes (%) (NOD mouse [1]; [9]): 29%
- Final Blood Glucose (mean ± SE) diabetic (NOD mouse [1]; [9]): 605 ± 59 mg glucose/dl
- Final Blood Glucose (mean ± SE) non-diabetic (NOD mouse [1]; [9]): 166 ± 4 mg glucose/dl
- Diabetes (%) (NOD mouse [1]; started post wean, 250 μmol/kg by gavage in water, mice 24-27 weeks old, study ongoing): 25%

Structure (SMILES): OCCc1ccc(O)c(O)c1 [Hydroxytyrosol, 4-(2-hydroxyethyl)benzene-1,2-diol]
- Diabetes (%) (NOD mouse [1]; [10]): 59%
- Final Blood Glucose (mean ± SE) diabetic (NOD mouse [1]; [10]): 672 ± 24 mg glucose/dl
- Final Blood Glucose (mean ± SE) non-diabetic (NOD mouse [1]; [10]): 173 ± 12 mg glucose/dl

Structure (SMILES): CC(C)=CCC/C(C)=C/CC/C(C)=C/CC/C(C)=C\CC1=C(C)C(=O)c2ccccc2C1=O [Menaquinone-4, 3-methyl-2-[(2Z,6E,10E)-3,7,11,15-tetramethylhexadeca-2,6,10,14-tetraenyl]naphthalene-1,4-dione, reference compound]
- Diabetes (%) (NOD mouse [1]; 200 μmol/kg in olive oil, IP til wean (21 days), then gavage until 98 days, mice 24-30 weeks old, study ongoing): 25%
- Diabetes (%) (NOD mouse [1]; 30 day treatment, 200 μmol/kg IP in olive oil, mice 20-40 weeks old, study ongoing): 32%
- Diabetes (%) (NOD mouse [1]; 60 day treatment, 200 μmol/kg IP in olive oil, mice 34-36 weeks old, study ongoing): 4%
- Diabetes (%) (NOD mouse [1]; [11]): 0%
- Final Blood Glucose (mean ± SE) non-diabetic (NOD mouse [1]; [11]): 172 ± 15 mg glucose/dl
- Diabetes (%) (NOD mouse [1]; [12]): 50%
- Final Blood Glucose (mean ± SE) diabetic (NOD mouse [1]; [12]): 706 ± 25 mg glucose/dl
- Final Blood Glucose (mean ± SE) non-diabetic (NOD mouse [1]; [12]): 164 ± 9 mg glucose/dl

Structure (SMILES): C/C=C(/C=O)[C@@H](CC=O)CC(=O)OCCc1ccc(O)cc1 [Oleocanthal (oil)]
- Diabetes (%) (NOD mouse [1]; [13]): 35%
- Final Blood Glucose (mean ± SE) diabetic (NOD mouse [1]; [13]): 560 ± 61 mg glucose/dl
- Final Blood Glucose (mean ± SE) non-diabetic (NOD mouse [1]; [13]): 178 ± 7 mg glucose/dl

Structure (SMILES): CC1=C(C/C=C(\C)CCC[C@H](C)CCC[C@H](C)CCCC(C)C)C(=O)c2ccccc2C1=O [Phylloquinone, reference compound]
- Diabetes (%) (NOD mouse [1]; 110 μmol/kg IP in olive oil): 38%
- Final Blood Glucose (mean ± SE) diabetic (NOD mouse [1]; 110 μmol/kg IP in olive oil): 648 ± 37 mg glucose/dl
- Final Blood Glucose (mean ± SE) non-diabetic (NOD mouse [1]; 110 μmol/kg IP in olive oil): 174 ± 5 mg glucose/dl
- Diabetes (%) (NOD mouse [1]; [14]): 21%
- Final Blood Glucose (mean ± SE) diabetic (NOD mouse [1]; [14]): 647 ± 27 mg glucose/dl
- Final Blood Glucose (mean ± SE) non-diabetic (NOD mouse [1]; [14]): 163 ± 5 mg glucose/dl
- Diabetes (%) (NOD mouse [1]; [15]): 40%
- Final Blood Glucose (mean ± SE) diabetic (NOD mouse [1]; [15]): 646 ± 40 mg glucose/dl
- Final Blood Glucose (mean ± SE) non-diabetic (NOD mouse [1]; [15]): 167 ± 10 mg glucose/dl
- Diabetes (%) (NOD mouse [1]; [16]): 36%
- Final Blood Glucose (mean ± SE) diabetic (NOD mouse [1]; [16]): 677 ± 20 mg glucose/dl
- Final Blood Glucose (mean ± SE) non-diabetic (NOD mouse [1]; [16]): 156 ± 6 mg glucose/dl
